Reference: patent US10233186B2, “Inhibitors of activin receptor-like kinase” (BLUEPRINT MEDICINES CORPORATION, priority 2016, dated 2019)

Key:
[1] = target: T1, ALK2 R206H (GST-tagged mutant ALK2) (Homo sapiens, UniProt Q04771, R206H); experiment: ALK binding assay (LANTHASCREEN TR-FRET competitive binding, displacement of Kinase Tracer 178); settings: ALK2 R206H, LANTHASCREEN TR-FRET competitive binding; read-out: Binding Assay (IC50)
T1 construct: purchased Carna Bioscience or ThermoFisher 09-148 or PV6232
T1 sequence (Q04771 21-509 R206H): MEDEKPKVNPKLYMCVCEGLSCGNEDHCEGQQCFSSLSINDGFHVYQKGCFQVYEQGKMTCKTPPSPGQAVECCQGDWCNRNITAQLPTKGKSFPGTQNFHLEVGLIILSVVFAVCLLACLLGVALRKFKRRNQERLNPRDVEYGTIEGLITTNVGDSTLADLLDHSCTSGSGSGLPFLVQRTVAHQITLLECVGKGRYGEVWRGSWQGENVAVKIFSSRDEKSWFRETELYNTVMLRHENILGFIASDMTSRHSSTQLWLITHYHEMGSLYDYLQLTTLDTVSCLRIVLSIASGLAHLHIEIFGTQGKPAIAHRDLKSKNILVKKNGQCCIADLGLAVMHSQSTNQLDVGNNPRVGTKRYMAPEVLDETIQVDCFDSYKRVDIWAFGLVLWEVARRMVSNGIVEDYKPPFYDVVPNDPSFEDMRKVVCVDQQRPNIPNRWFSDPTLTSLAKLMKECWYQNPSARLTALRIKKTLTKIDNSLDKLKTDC

human ALK2 R206H = target: T2, human ALK2 R206H (Homo sapiens, UniProt Q04771, R206H); experiment: Cell-based ALK2-R206H cell activity assay (Smad1-Ser463/Ser465 phosphorylation by AlphaLISA in HEK293-ALK2-R206H cells); settings: read-out: Cell Line (Cell Assay IC50)
T2 construct: expressed in transfected cells; host or cells: HEK293 (ATCC CRL1573), lentivirus transduction, blasticidin selection
T2 sequence (Q04771 21-509 R206H): T1 sequence (Q04771 21-509 R206H)
How it was run: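 Stable HEK293 cells expressing C-terminally FLAG-tagged human ALK2 R206H (lentiviral, blasticidin-selected) were treated with compounds in 10-point, 3-fold dilutions from 10 μM or 1 μM top, in duplicate. Smad1 Ser463/Ser465 phosphorylation was read by AlphaLISA.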

## COC1(c2cnc(-c3cc4c(N5CCN(C(=O)C6CC6)CC5)ccnn4c3)c(F)c2)CCN(C(C)C)CC1 [Compound 689]
[1]
  IC50: < 10 nM
Human ALK2 R206H
  IC50: 100 to 500 nM

## CO[C@]1(c2ccc(-c3cc4c(N5CCN(C(=O)NC(C)C)CC5)ccnn4c3)cc2F)CCCN(C(C)C)C1 [Compound 723]
[1]
  IC50: < 10 nM
Human ALK2 R206H
  IC50: < 100 nM

## CCN1CCN(c2ccc(-c3cc4c(N5CCN(C(=O)C6CC6)CC5)ccnn4c3)nc2)CC1 [Compound 222]
[1]
  IC50: < 10 nM
Human ALK2 R206H
  IC50: < 100 nM

## COC1(c2ccc(-c3cc4c(N5CCN(C(=O)OC6COC6)CC5)ccnn4c3)c(C#N)c2)CCN(C(C)C)CC1 [Compound 873]
[1]
  IC50: < 10 nM
Human ALK2 R206H
  IC50: < 100 nM

## CCOC(=O)N1CCN(c2ccnn3cc(-c4ccc(C5CCN(C(C)C)CC5)cc4Cl)cc23)CC1 [Compound 651]
[1]
  IC50: < 10 nM
Human ALK2 R206H
  IC50: < 100 nM

## CCOC(=O)N1CCN(c2ccnn3cc(-c4ccc([C@@]5(OC)CCN(C(C)C)C5)cc4)cc23)CC1 [Compound 603]
[1]
  IC50: < 10 nM
Human ALK2 R206H
  IC50: < 100 nM

## CO[C@@]1(c2ccc(-c3cc4c(N5CCN(C(=O)NC(C)C)CC5)ccnn4c3)nc2)CCCNC1 [Compound 786]
[1]
  IC50: < 10 nM
Human ALK2 R206H
  IC50: < 100 nM

## CCNC(=O)N1CCN(c2ccnn3cc(-c4ccc([C@H]5CCCN(C(C)C)C5)cn4)cc23)CC1 [Compound 539]
[1]
  IC50: < 10 nM
Human ALK2 R206H
  IC50: < 100 nM

## CCN1CCC(c2ccc(-c3cc4c(N5CCN(C(=O)C6CC6)CC5)ccnn4c3)cc2)CC1 [Compound 200]
[1]
  IC50: < 10 nM
Human ALK2 R206H
  IC50: < 100 nM

## CC(=O)N1CC(OC(=O)N2CCN(c3ccnn4cc(-c5ccc([C@@H]6CCCN(C(C)C)C6)cc5)cc34)CC2)C1 [Compound 853]
[1]
  IC50: < 10 nM
Human ALK2 R206H
  IC50: 100 to 500 nM

## COC1(c2ccc(-c3cc4c(N5CCN(C(=O)NC(C)C)CC5)ccnn4c3)nc2)CCN(C(C)CF)CC1 (stereo not drawn) [Compound 850]
[1]
  IC50: < 10 nM
Human ALK2 R206H
  IC50: < 100 nM

## CC[C@H](C)N1CCC(c2ccc(-c3cc4c(N5CCN(C(=O)C6CC6)CC5)ccnn4c3)cc2)CC1 [Compound 564]
[1]
  IC50: < 10 nM
Human ALK2 R206H
  IC50: < 100 nM

## CCOC(=O)N1CCN(c2ccnn3cc(-c4ccc([C@]5(OCC)CCCNC5)cc4)cc23)CC1 [Compound 783]
[1]
  IC50: < 10 nM
Human ALK2 R206H
  IC50: < 100 nM

## CCN1CCC(c2ccc(-c3cc4c(N5CCN(C(=O)OC(C)C)CC5)ccnn4c3)cc2)CC1 [Compound 285]
[1]
  IC50: < 10 nM
Human ALK2 R206H
  IC50: < 100 nM

## CCOC(=O)N1CCN(c2ccnn3cc(-c4ccc([C@]5(F)CCCNC5)cc4)cc23)CC1 [Compound 479]
[1]
  IC50: < 10 nM
Human ALK2 R206H
  IC50: < 100 nM

## CC(C)(O)C(N)c1ccc(-c2cc3c(N4CCN(C(=O)OC5COC5)CC4)ccnn3c2)cc1 (stereo not drawn) [Compound 779]
[1]
  IC50: < 10 nM
Human ALK2 R206H
  IC50: < 100 nM

## CC(C)NC(=O)N1CCN(c2ccnn3cc(-c4ccc([C@@H]5CCCN(C(C)C)C5)cn4)cc23)CC1 [Compound 588]
[1]
  IC50: < 10 nM
Human ALK2 R206H
  IC50: < 100 nM

## CCNC(=O)N1CCN(c2ccnn3cc(-c4ccc(C5CCN(C(C)C)CC5)nn4)cc23)CC1 [Compound 548]
[1]
  IC50: < 10 nM
Human ALK2 R206H
  IC50: > 500 nM

## CC(C)N1CCC[C@H](c2ccc(-c3cc4c(N5CCN(C(=O)NCCC#N)CC5)ccnn4c3)cc2)C1 [Compound 618]
[1]
  IC50: < 10 nM
Human ALK2 R206H
  IC50: < 100 nM

## COC1(c2ccc(-c3cc4c(N5CCN(C(=O)[C@H]6C[C@H](C#N)C6)CC5)ccnn4c3)cc2)CCN([C@@H](C)CO)CC1 [Compound 740]
[1]
  IC50: < 10 nM
Human ALK2 R206H
  IC50: < 100 nM

## COC1(c2ccc(-c3cc4c(N5CCN(C(=O)[C@H]6C[C@@H]6C#N)CC5)ccnn4c3)cc2)CCN(C(C)C)CC1 [Compound 705]
[1]
  IC50: < 10 nM
Human ALK2 R206H
  IC50: < 100 nM

## CC(C)N1CC[C@@H](c2ccc(-c3cc4c(N5CCN(C(=O)C6CC6)[C@H](C)C5)ccnn4c3)cc2)C1 [Compound 254]
[1]
  IC50: < 10 nM
Human ALK2 R206H
  IC50: < 100 nM

## CC(C)NC(=O)N1CCN(c2ccnn3cc(-c4ccc(C56CCN(CC5)CC6)cc4)cc23)CC1 [Compound 519]
[1]
  IC50: < 10 nM
Human ALK2 R206H
  IC50: < 100 nM

## CC(C)N1CCC(c2ccc(-c3cc4c(N5CCN(C(=O)[C@H]6C[C@@](C)(O)C6)CC5)ccnn4c3)cc2)CC1 [Compound 421]
[1]
  IC50: < 10 nM
Human ALK2 R206H
  IC50: < 100 nM

## CCOC1(c2ccc(-c3cc4c(N5CCN(C(=O)OCC(F)F)CC5)ccnn4c3)nc2)CCN(C(C)C)CC1 [Compound 872]
[1]
  IC50: < 10 nM
Human ALK2 R206H
  IC50: < 100 nM

## CC(C)N1CCC[C@H](c2ccc(-c3cc4c(N5CCN(C(=O)[C@H]6C[C@H](O)C6)CC5)ccnn4c3)cc2)C1 [Compound 387]
[1]
  IC50: < 10 nM
Human ALK2 R206H
  IC50: < 100 nM

## CCOC(=O)N1CCN(c2ccnn3cc(-c4ccc([C@@]5(F)CCCN(C(C)C)C5)cn4)cc23)CC1 [Compound 614]
[1]
  IC50: < 10 nM
Human ALK2 R206H
  IC50: < 100 nM

## O=C(C1CC1)N1CCN(c2ccnn3cc(-c4ccc(C5CCNCC5(F)F)cc4)cc23)CC1 (stereo not drawn) [Compound 238]
[1]
  IC50: < 10 nM
Human ALK2 R206H
  IC50: 100 to 500 nM

## CCNC(=O)N1CCN(c2ccnn3cc(-c4ccc(C5(O)CCCN(C(C)C)C5)cc4)cc23)CC1 (stereo not drawn) [Compound 351]
[1]
  IC50: < 10 nM
Human ALK2 R206H
  IC50: < 100 nM

## CC(C)N1CCC[C@@H]1c1ccc(-c2cc3c(N4CCN(C(=O)C5CC5)CC4)ccnn3c2)cn1 [Compound 487]
[1]
  IC50: < 10 nM
Human ALK2 R206H
  IC50: < 100 nM

## CCOC1(c2ccc(-c3cc4c(N5CCN(C(=O)OC6COC6)CC5)ccnn4c3)nc2)CCN(C2COC2)CC1 [Compound 875]
[1]
  IC50: < 10 nM
Human ALK2 R206H
  IC50: < 100 nM

## CCN1CC(F)C(c2ccc(-c3cc4c(N5CCN(C(=O)C6CC6)CC5)ccnn4c3)cc2)C1 (stereo not drawn) [Compound 228]
[1]
  IC50: < 10 nM
Human ALK2 R206H
  IC50: < 100 nM

## CO[C@@]1(c2ccc(-c3cc4c(N5CCN(C(=O)NC(C)C)CC5)ccnn4c3)cc2)CCCNC1 [Compound 543]
[1]
  IC50: < 10 nM
Human ALK2 R206H
  IC50: < 100 nM

## C[C@@H]1CN(c2ccnn3cc(-c4ccc(N5CCNCC5)cc4)cc23)CCN1C(=O)C1CC1 [Compound 152]
[1]
  IC50: < 10 nM
Human ALK2 R206H
  IC50: < 100 nM

## CCNC(=O)N1CCN(c2ccnn3cc(-c4ccc(N5CCN(C(C)C)CC5)cn4)cc23)CC1 [Compound 546]
[1]
  IC50: < 10 nM
Human ALK2 R206H
  IC50: < 100 nM

## CCOC(=O)N1CCN(c2ccnn3cc(-c4ccc(C5CCN(C(C)C)CC5)cc4)cc23)CC1 [Compound 534]
[1]
  IC50: < 10 nM
Human ALK2 R206H
  IC50: < 100 nM

## CO[C@]1(c2ccc(-c3cc4c(N5CCN(C(=O)NC(C)C)CC5)ccnn4c3)cc2)CCN(C(C)C)C1 [Compound 637]
[1]
  IC50: < 10 nM
Human ALK2 R206H
  IC50: < 100 nM

## CCN1CCN(c2ccc(-c3cc4c(N5CCN(C(=O)C6CC6)CC5)ccnn4c3)c(OC(F)F)c2)CC1 [Compound 427]
[1]
  IC50: < 10 nM
Human ALK2 R206H
  IC50: 100 to 500 nM

## CC(C)N1CCN(c2ccc(-c3cc4c(N5CCN(C(=O)[C@H]6CC[C@H](C#N)CC6)CC5)ccnn4c3)cc2)CC1 [Compound 436]
[1]
  IC50: < 10 nM
Human ALK2 R206H
  IC50: < 100 nM

## CC(C)N1CC[C@@H](c2ccc(-c3cc4c(N5CCN(C(=O)[C@H]6CC[C@H](C#N)CC6)CC5)ccnn4c3)nc2)C1 [Compound 702]
[1]
  IC50: < 10 nM
Human ALK2 R206H
  IC50: < 100 nM

## O=C(C1CC1)N1CCN(c2ccnn3cc(-c4ccc(N5CC6(CCNC6)C5)cc4)cc23)CC1 [Compound 197]
[1]
  IC50: 10 to 50 nM
Human ALK2 R206H
  IC50: 100 to 500 nM

## COC1(c2ccc(-c3cc4c(N5CCN(C(=O)NC(C)C)CC5)ccnn4c3)nc2)CCNC(C)(C)C1 (stereo not drawn) [Compound 817]
[1]
  IC50: < 10 nM
Human ALK2 R206H
  IC50: < 100 nM

## O=C(C1CC1)N1CCN(c2ccnn3cc(-c4ccc(C5CNCCO5)cc4)cc23)CC1 (stereo not drawn) [Compound 129]
[1]
  IC50: < 10 nM
Human ALK2 R206H
  IC50: < 100 nM

## CO[C@@]1(c2ccc(-c3cc4c(N5CCN(C(=O)NC(C)C)CC5)ccnn4c3)nc2)CCCN(C(C)C)C1 [Compound 686]
[1]
  IC50: < 10 nM
Human ALK2 R206H
  IC50: < 100 nM

## COC1(c2ccc(-c3cc4c(N5CCN(C(=O)[C@H]6C[C@H](C#N)C6)CC5)ccnn4c3)cc2)CCN(C(C)C)CC1 [Compound 728]
[1]
  IC50: < 10 nM
Human ALK2 R206H
  IC50: < 100 nM
